# Assay results published in patent publication US20100298141A1, “SUBSTITUTED PYRIDINE N-OXIDE HERBICIDES” (E. I. DU PONT DE NEMOURS AND COMPANY, priority 2007, published 2010).
# How the values were obtained:
# yellow foxtail = test: Test G preemergence test; type: in vivo, Pennisetum glaucum; conditions: scale 0 to 100
# rice = test: Test B flooded paddy test; type: in vivo, Oryza sativa; conditions: Flood, 250 g ai/ha, 13 to 15 days; scale 0 to 100, 0 no effect, 100 complete control
# Outline: (§1)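 Visual injury ratings against untreated controls, taken 13 to 15 days after compound was added to paddy water standing 3 cm above the soil.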
# wild oat = test: Test D preemergence test; type: in vivo, Avena fatua; conditions: scale 0 to 100
# Outline: (§2)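 Seeds were sown and sprayed preemergence with test chemicals formulated in a non-phytotoxic solvent mixture containing a surfactant. A dash marks no test result.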
# Italian ryegrass = test: Test D preemergence test; type: in vivo, Lolium multiflorum; conditions: scale 0 to 100
# Outline: as §2
# itchgrass = test: Test G preemergence test; type: in vivo, Rottboellia cochinchinensis; conditions: scale 0 to 100
# littleseed canarygrass = test: Test D preemergence test; type: in vivo, Phalaris minor; conditions: scale 0 to 100
# Outline: as §2
# annual bluegrass = test: Test D preemergence test; type: in vivo, Poa annua; conditions: scale 0 to 100
# Outline: as §2
# goosegrass = test: Test G preemergence test; type: in vivo, Eleusine indica; conditions: scale 0 to 100
# winter wheat = test: Test D preemergence test; type: in vivo, Triticum aestivum; conditions: scale 0 to 100
# Outline: as §2
# spring wheat = test: Test D preemergence test; type: in vivo, Triticum aestivum; conditions: scale 0 to 100
# Outline: as §2
# corn = test: Test G preemergence test; type: in vivo, Zea mays; conditions: scale 0 to 100
# woolly cupgrass = test: Test G preemergence test; type: in vivo, Eriochloa villosa; conditions: scale 0 to 100
# lambsquarters = test: Test G preemergence test; type: in vivo, Chenopodium album; conditions: scale 0 to 100
# large crabgrass = test: Test G preemergence test; type: in vivo, Digitaria sanguinalis; conditions: scale 0 to 100
# blackgrass = test: Test D preemergence test; type: in vivo, Alopecurus myosuroides; conditions: scale 0 to 100
# Outline: as §2
# yellow nutsedge = test: Test G preemergence test; type: in vivo, Cyperus esculentus; conditions: scale 0 to 100
# tall waterhemp = test: Test G preemergence test; type: in vivo, Amaranthus tuberculatos; conditions: scale 0 to 100
# field violet = test: Test D preemergence test; type: in vivo, Viola arvensis; conditions: scale 0 to 100
# Outline: as §2
# soybean = test: Test G preemergence test; type: in vivo, Glycine max; conditions: scale 0 to 100
# eastern black nightshade = test: Test G preemergence test; type: in vivo, Solanum ptycanthum; conditions: scale 0 to 100
# broadleaf signalgrass = test: Test G preemergence test; type: in vivo, Brachiaria platyphylla; conditions: scale 0 to 100
# sorghum = test: Test G preemergence test; type: in vivo, Sorghum vulgare; conditions: scale 0 to 100
# duck salad = test: Test B flooded paddy test; type: in vivo, Heteranthera limosa; conditions: Flood, 250 g ai/ha, 13 to 15 days; scale 0 to 100, 0 no effect, 100 complete control
# Outline: as §1
# cotton = test: Test G preemergence test; type: in vivo, Gossypium hirsutum; conditions: scale 0 to 100
# umbrella sedge = test: Test B flooded paddy test; type: in vivo, Cyperus difformis; conditions: Flood, 250 g ai/ha, 13 to 15 days; scale 0 to 100, 0 no effect, 100 complete control
# Outline: as §1
# barnyardgrass = test: Test B flooded paddy test; type: in vivo, Echinochloa crus-galli; conditions: Flood, 250 g ai/ha, 13 to 15 days; scale 0 to 100, 0 no effect, 100 complete control
# Outline: as §1
structure (smiles),measurement,setting,value
Cn1nc(C(F)(F)F)c(CS(=O)(=O)c2ccc(Cl)c[n+]2[O-])c1OC(F)F [Compound 7],"Plant response rating, Foxtail, Yellow",yellow foxtail; 31 g ai/ha,0
same,"Plant response rating, Foxtail, Yellow",yellow foxtail; 62 g ai/ha,50
same,"Plant response rating, Foxtail, Yellow",yellow foxtail; 125 g ai/ha,95
same,"Plant response rating, Foxtail, Yellow",yellow foxtail; 250 g ai/ha,100
same,"Plant response rating, Rice, Transplanted",rice,70
same,"Plant response rating, Oat, Wild",wild oat; 31 g ai/ha,0
same,"Plant response rating, Oat, Wild",wild oat; 62 g ai/ha,0
same,"Plant response rating, Oat, Wild",wild oat; 125 g ai/ha,0
same,"Plant response rating, Oat, Wild",wild oat; 250 g ai/ha,0
same,"Plant response rating, Ryegrass, Italian",Italian ryegrass; 31 g ai/ha,0
same,"Plant response rating, Ryegrass, Italian",Italian ryegrass; 62 g ai/ha,0
same,"Plant response rating, Ryegrass, Italian",Italian ryegrass; 125 g ai/ha,0
same,"Plant response rating, Ryegrass, Italian",Italian ryegrass; 250 g ai/ha,20
same,"Plant response rating, Itchgrass",itchgrass; 31 g ai/ha,0
same,"Plant response rating, Itchgrass",itchgrass; 62 g ai/ha,0
same,"Plant response rating, Itchgrass",itchgrass; 125 g ai/ha,25
same,"Plant response rating, Itchgrass",itchgrass; 250 g ai/ha,25
same,"Plant response rating, Canarygrass",littleseed canarygrass; 31 g ai/ha,0
same,"Plant response rating, Canarygrass",littleseed canarygrass; 62 g ai/ha,0
same,"Plant response rating, Canarygrass",littleseed canarygrass; 125 g ai/ha,20
same,"Plant response rating, Canarygrass",littleseed canarygrass; 250 g ai/ha,100
same,"Plant response rating, Bluegrass",annual bluegrass; 31 g ai/ha,0
same,"Plant response rating, Bluegrass",annual bluegrass; 62 g ai/ha,0
same,"Plant response rating, Bluegrass",annual bluegrass; 125 g ai/ha,65
same,"Plant response rating, Bluegrass",annual bluegrass; 250 g ai/ha,95
same,"Plant response rating, Goosegrass",goosegrass; 31 g ai/ha,50
same,"Plant response rating, Goosegrass",goosegrass; 62 g ai/ha,90
same,"Plant response rating, Goosegrass",goosegrass; 125 g ai/ha,100
same,"Plant response rating, Goosegrass",goosegrass; 250 g ai/ha,100
same,"Plant response rating, Wheat, Winter",winter wheat; 31 g ai/ha,0
same,"Plant response rating, Wheat, Winter",winter wheat; 62 g ai/ha,0
same,"Plant response rating, Wheat, Winter",winter wheat; 125 g ai/ha,0
same,"Plant response rating, Wheat, Winter",winter wheat; 250 g ai/ha,0
same,"Plant response rating, Wheat, Spring",spring wheat; 31 g ai/ha,0
same,"Plant response rating, Wheat, Spring",spring wheat; 62 g ai/ha,0
same,"Plant response rating, Wheat, Spring",spring wheat; 125 g ai/ha,0
same,"Plant response rating, Wheat, Spring",spring wheat; 250 g ai/ha,0
same,"Plant response rating, Corn",corn; 31 g ai/ha,0
same,"Plant response rating, Corn",corn; 62 g ai/ha,0
same,"Plant response rating, Corn",corn; 125 g ai/ha,0
same,"Plant response rating, Corn",corn; 250 g ai/ha,0
same,"Plant response rating, Cupgrass, Woolly",woolly cupgrass; 31 g ai/ha,0
same,"Plant response rating, Cupgrass, Woolly",woolly cupgrass; 62 g ai/ha,60
same,"Plant response rating, Cupgrass, Woolly",woolly cupgrass; 125 g ai/ha,75
same,"Plant response rating, Cupgrass, Woolly",woolly cupgrass; 250 g ai/ha,80
same,"Plant response rating, Lambsquarters",lambsquarters; 31 g ai/ha,0
same,"Plant response rating, Lambsquarters",lambsquarters; 62 g ai/ha,0
same,"Plant response rating, Lambsquarters",lambsquarters; 125 g ai/ha,0
same,"Plant response rating, Lambsquarters",lambsquarters; 250 g ai/ha,15
same,"Plant response rating, Crabgrass, Large",large crabgrass; 31 g ai/ha,0
same,"Plant response rating, Crabgrass, Large",large crabgrass; 62 g ai/ha,0
same,"Plant response rating, Crabgrass, Large",large crabgrass; 125 g ai/ha,20
same,"Plant response rating, Crabgrass, Large",large crabgrass; 250 g ai/ha,90
same,"Plant response rating, Blackgrass",blackgrass; 31 g ai/ha,0
same,"Plant response rating, Blackgrass",blackgrass; 62 g ai/ha,0
same,"Plant response rating, Blackgrass",blackgrass; 125 g ai/ha,0
same,"Plant response rating, Blackgrass",blackgrass; 250 g ai/ha,80
same,"Plant response rating, Nutsedge, Yellow",yellow nutsedge; 31 g ai/ha,0
same,"Plant response rating, Nutsedge, Yellow",yellow nutsedge; 62 g ai/ha,0
same,"Plant response rating, Nutsedge, Yellow",yellow nutsedge; 125 g ai/ha,0
same,"Plant response rating, Nutsedge, Yellow",yellow nutsedge; 250 g ai/ha,0
same,"Plant response rating, Waterhemp",tall waterhemp; 31 g ai/ha,15
same,"Plant response rating, Waterhemp",tall waterhemp; 62 g ai/ha,60
same,"Plant response rating, Waterhemp",tall waterhemp; 125 g ai/ha,100
same,"Plant response rating, Waterhemp",tall waterhemp; 250 g ai/ha,100
same,"Plant response rating, Field Violet",field violet; 31 g ai/ha,0
same,"Plant response rating, Field Violet",field violet; 62 g ai/ha,0
same,"Plant response rating, Field Violet",field violet; 125 g ai/ha,0
same,"Plant response rating, Field Violet",field violet; 250 g ai/ha,30
same,"Plant response rating, Soybean",soybean; 31 g ai/ha,0
same,"Plant response rating, Soybean",soybean; 62 g ai/ha,0
same,"Plant response rating, Soybean",soybean; 125 g ai/ha,0
same,"Plant response rating, Soybean",soybean; 250 g ai/ha,0
same,"Plant response rating, Nightshade",eastern black nightshade; 31 g ai/ha,0
same,"Plant response rating, Nightshade",eastern black nightshade; 62 g ai/ha,0
same,"Plant response rating, Nightshade",eastern black nightshade; 125 g ai/ha,0
same,"Plant response rating, Nightshade",eastern black nightshade; 250 g ai/ha,0
same,"Plant response rating, Signalgrass",broadleaf signalgrass; 31 g ai/ha,15
same,"Plant response rating, Signalgrass",broadleaf signalgrass; 62 g ai/ha,35
same,"Plant response rating, Signalgrass",broadleaf signalgrass; 125 g ai/ha,90
same,"Plant response rating, Signalgrass",broadleaf signalgrass; 250 g ai/ha,100
same,"Plant response rating, Sorghum",sorghum; 31 g ai/ha,0
same,"Plant response rating, Sorghum",sorghum; 62 g ai/ha,0
same,"Plant response rating, Sorghum",sorghum; 125 g ai/ha,0
same,"Plant response rating, Sorghum",sorghum; 250 g ai/ha,20
same,"Plant response rating, Ducksalad",duck salad,90
same,"Plant response rating, Cotton",cotton; 31 g ai/ha,0
same,"Plant response rating, Cotton",cotton; 62 g ai/ha,0
same,"Plant response rating, Cotton",cotton; 125 g ai/ha,0
same,"Plant response rating, Cotton",cotton; 250 g ai/ha,0
same,"Plant response rating, Umbrella Sedge",umbrella sedge,90
same,"Plant response rating, Barnyardgrass",barnyardgrass,80
